Results from patent US12492181B2, “Gem-disubstituted piperidine melanocortin subtype-2 receptor (MC2R) antagonists and uses thereof” (Crinetics Pharmaceuticals, Inc., priority 2019, dated 2025).

Biological target: T1, hMC2 receptor (crude hMC2R membranes from CRE-bla-CHO-K1 cells stably expressing hMC2 receptor and hMRAP accessory protein) (Homo sapiens, UniProt Q01718)
T1 construct: crude membrane fractions
Assay: hMC2 membrane binding assay ([125I]ACTH (1-39) Tyr23, SPA)
Conditions: displacement of 0.2 nM [125I]ACTH (1-39) Tyr23 from hMC2R membranes, 1.5 hours at room temperature; read-out: MC2R binding potency
How it was run: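 Ki values come from non-linear regression of SPA scintillation counts, with compounds displacing [125I]ACTH(1-39) Tyr23. Membranes come from CRE-bla-CHO-K1 cells stably expressing hMC2 receptor together with hMRAP. They are preincubated with WGA-coated PVT SPA beads in 50 mM HEPES pH 7.4 with 0.20% BSA, Mg2+, Ca2+ and protease inhibitors.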

T1 sequence (Q01718 whole entry): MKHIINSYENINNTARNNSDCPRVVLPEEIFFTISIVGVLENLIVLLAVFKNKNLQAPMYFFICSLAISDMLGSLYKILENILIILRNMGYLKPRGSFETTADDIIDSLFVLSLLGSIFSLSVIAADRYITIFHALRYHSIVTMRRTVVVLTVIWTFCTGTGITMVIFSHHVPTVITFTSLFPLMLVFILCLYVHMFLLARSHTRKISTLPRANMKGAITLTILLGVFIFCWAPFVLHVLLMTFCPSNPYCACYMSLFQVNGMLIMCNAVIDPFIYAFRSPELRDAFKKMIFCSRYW
T1 sequence (Q8TCY5 whole entry partner): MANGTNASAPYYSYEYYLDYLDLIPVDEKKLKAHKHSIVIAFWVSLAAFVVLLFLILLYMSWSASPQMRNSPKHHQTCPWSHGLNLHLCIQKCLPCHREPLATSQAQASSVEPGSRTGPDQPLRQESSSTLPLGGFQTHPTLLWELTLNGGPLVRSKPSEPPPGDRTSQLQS

Row | Structure (SMILES) | Ki [µM]
1 | CCOc1ccccc1-c1ccc(C2(NC(=O)CN(C)C)CCN(c3ccc(C(F)(F)F)cc3C#N)CC2)cn1 [Compound 2-34, N-{1-[2-cyano-4-(trifluoromethyl)phenyl]-4-[6-(2-ethoxyphenyl)pyridin-3-yl]piperidin-4-yl}-2-(dimethylamino)acetamide] | < 0.01
2 | CCOc1ccccc1-c1ccc(C2(NC(=O)CCN(C)C)CCN(c3ccc(C(F)(F)F)cc3C#N)CC2)cn1 [Compound 2-36, N-{1-[2-cyano-4-(trifluoromethyl)phenyl]-4-[6-(2-ethoxyphenyl)pyridin-3-yl]piperidin-4-yl}-3-(dimethylamino)propanamide] | < 0.01
3 | CCOc1ncccc1-c1ccc(C2(NC(=O)C3CN(C)C3)CCN(c3ccc(Cl)cc3C#N)CC2)cn1 [Compound 2-37, N-[1-(4-chloro-2-cyanophenyl)-4-{2′-ethoxy-[2,3′-bipyridin]-5-yl}piperidin-4-yl]-1-methylazetidine-3-carboxamide] | < 0.01
4 | CCOc1ncccc1-c1ccc(C2(NC(=O)CN(C)C)CCN(c3ccc(Cl)cc3C#N)CC2)cn1 [Compound 2-38, N-[1-(4-chloro-2-cyanophenyl)-4-{2′-ethoxy-[2,3′-bipyridin]-5-yl}piperidin-4-yl]-2-(dimethylamino)acetamide] | < 0.01
5 | CCOc1ncccc1-c1ccc(C2(NC(=O)[C@H]3CCN(C)C3)CCN(c3ccc(Cl)cc3C#N)CC2)cn1 [Compound 2-39, (3S)—N-[1-(4-chloro-2-cyanophenyl)-4-{2′-ethoxy-[2,3′-bipyridin]-5-yl}piperidin-4-yl]-1-methylpyrrolidine-3-carboxamide] | < 0.01
6 | COc1ncccc1-c1ccc(C2(NC(=O)C3CN(C)C3)CCN(c3ccc(C(F)(F)F)cc3C#N)CC2)cn1 [Compound 2-40, N-{1-[2-cyano-4-(trifluoromethyl)phenyl]-4-{2′-methoxy-[2,3′-bipyridin]-5-yl}piperidin-4-yl}-1-methylazetidine-3-carboxamide] | < 0.01
7 | CN1CC[C@@H](OC(=O)NC2(c3ccc(-c4cccn4C)nc3)CCN(c3ccc(C(F)(F)F)cc3C#N)CC2)C1 [Compound 2-41, (3R)-1-methylpyrrolidin-3-yl N-{1-[2-cyano-4-(trifluoromethyl)phenyl]-4-[6-(1-methyl-1H-pyrrol-2-yl)pyridin-3-yl]piperidin-4-yl}carbamate] | < 0.01
8 | CN1CC[C@H](OC(=O)NC2(c3ccc(-c4cccn4C)nc3)CCN(c3ccc(C(F)(F)F)cc3C#N)CC2)C1 [Compound 2-42, (3S)-1-methylpyrrolidin-3-yl N-{1-[2-cyano-4-(trifluoromethyl)phenyl]-4-[6-(1-methyl-1H-pyrrol-2-yl)pyridin-3-yl]piperidin-4-yl}carbamate] | < 0.01
9 | CN1CC[C@H](NC(=O)NC2(c3ccc(-c4cccn4C)nc3)CCN(c3ccc(C(F)(F)F)cc3C#N)CC2)C1 [Compound 2-43, 1-{1-[2-cyano-4-(trifluoromethyl)phenyl]-4-[6-(1-methyl-1H-pyrrol-2-yl)pyridin-3-yl]piperidin-4-yl}-3-[(3S)-1-methylpyrrolidin-3-yl]urea] | < 0.01
10 | Cn1cccc1-c1ccc(C2(NC(=O)[C@H]3CCNC3)CCN(c3ccc(C(F)(F)F)cc3C#N)CC2)cn1 [Compound 2-44, (3S)—N-{1-[2-cyano-4-(trifluoromethyl)phenyl]-4-[6-(1-methyl-1H-pyrrol-2-yl)pyridin-3-yl]piperidin-4-yl}pyrrolidine-3-carboxamide] | < 0.01
11 | CN1CC(C(=O)NC2(c3ccc(-c4cccn4C)nc3)CCN(c3ccc(C(F)(F)F)cc3C#N)CC2)C1 [Compound 2-45, N-{1-[2-cyano-4-(trifluoromethyl)phenyl]-4-[6-(1-methyl-1H-pyrrol-2-yl)pyridin-3-yl]piperidin-4-yl}-1-methylazetidine-3-carboxamide] | < 0.01
12 | COc1ccccc1-c1ncc(C2(NC(=O)O[C@H]3CCN(C)C3)CCN(c3ccc(C(F)(F)F)cc3C#N)CC2)cc1F [Compound 2-49, (3S)-1-methylpyrrolidin-3-yl N-{1-[2-cyano-4-(trifluoromethyl)phenyl]-4-[5-fluoro-6-(2-methoxyphenyl)pyridin-3-yl]piperidin-4-yl}carbamate] | < 0.01
13 | COc1ccccc1-c1ncc(C2(NC(=O)O[C@@H]3CCN(C)C3)CCN(c3ccc(C(F)(F)F)cc3C#N)CC2)cc1F [Compound 2-50, (3R)-1-methylpyrrolidin-3-yl N-{1-[2-cyano-4-(trifluoromethyl)phenyl]-4-[5-fluoro-6-(2-methoxyphenyl)pyridin-3-yl]piperidin-4-yl}carbamate] | < 0.01
14 | COc1ccccc1-c1ncc(C2(NC(=O)N[C@H]3CCN(C)C3)CCN(c3ccc(C(F)(F)F)cc3C#N)CC2)cc1F [Compound 2-51, 1-{1-[2-cyano-4-(trifluoromethyl)phenyl]-4-[5-fluoro-6-(2-methoxyphenyl)pyridin-3-yl]piperidin-4-yl}-3-[(3S)-1-methylpyrrolidin-3-yl]urea] | < 0.01
15 | COc1ccccc1-c1ncc(C2(NC(=O)N[C@@H]3CCN(C)C3)CCN(c3ccc(C(F)(F)F)cc3C#N)CC2)cc1F [Compound 2-52, 1-{1-[2-cyano-4-(trifluoromethyl)phenyl]-4-[5-fluoro-6-(2-methoxyphenyl)pyridin-3-yl]piperidin-4-yl}-3-[(3R)-1-methylpyrrolidin-3-yl]urea] | < 0.01
16 | COc1ccccc1-c1ccc(C2(NC(=O)OCCN(C)C)CCN(c3ccc(C(F)(F)F)cc3C#N)CC2)cn1 [Compound 2-57, 2-(dimethylamino)ethyl N-{1-[2-cyano-4-(trifluoromethyl)phenyl]-4-[6-(2-methoxyphenyl)pyridin-3-yl]piperidin-4-yl}carbamate] | < 0.01
17 | COc1ccccc1-c1ccc(C2(NC(=O)NCCN(C)C)CCN(c3ccc(C(F)(F)F)cc3C#N)CC2)cn1 [Compound 2-58, 1-{1-[2-cyano-4-(trifluoromethyl)phenyl]-4-[6-(2-methoxyphenyl)pyridin-3-yl]piperidin-4-yl}-3-[2-(dimethylamino)ethyl]urea] | < 0.01
18 | COc1ccccc1-c1ncc(C2(NC(=O)CN(C)C)CCN(c3ccc(C(F)(F)F)cc3C#N)CC2)cc1F [Compound 2-61, N-{1-[2-cyano-4-(trifluoromethyl)phenyl]-4-[5-fluoro-6-(2-methoxyphenyl)pyridin-3-yl]piperidin-4-yl}-2-(dimethylamino)acetamide] | < 0.01

Now from value to molecule:

Row | Ki [µM] | Structure (SMILES)
19 | < 0.01 | CCOc1ccccc1-c1ccc(C2(NC(=O)[C@@H]3CCN(C)C3)CCN(c3ccc(C(F)(F)F)cc3C#N)CC2)cn1 [Compound 2-33, (3R)—N-{1-[2-cyano-4-(trifluoromethyl)phenyl]-4-[6-(2-ethoxyphenyl)pyridin-3-yl]piperidin-4-yl}-1-methylpyrrolidine-3-carboxamide]
20 | < 0.01 | CCOc1ccccc1-c1ccc(C2(NC(=O)C3CN(C)C3)CCN(c3ccc(C(F)(F)F)cc3C#N)CC2)cn1 [Compound 2-35, N-{1-[2-cyano-4-(trifluoromethyl)phenyl]-4-[6-(2-ethoxyphenyl)pyridin-3-yl]piperidin-4-yl}-1-methylazetidine-3-carboxamide]
21 | < 0.01 | CN1CC[C@H](C(=O)NC2(c3ccc(-c4cccn4C)nc3)CCN(c3ccc(C(F)(F)F)cc3C#N)CC2)C1 [Compound 2-46, (3S)—N-{1-[2-cyano-4-(trifluoromethyl)phenyl]-4-[6-(1-methyl-1H-pyrrol-2-yl)pyridin-3-yl]piperidin-4-yl}-1-methylpyrrolidine-3-carboxamide]
22 | < 0.01 | CN1CC[C@@H](C(=O)NC2(c3ccc(-c4cccn4C)nc3)CCN(c3ccc(C(F)(F)F)cc3C#N)CC2)C1 [Compound 2-47, (3R)—N-{1-[2-cyano-4-(trifluoromethyl)phenyl]-4-[6-(1-methyl-1H-pyrrol-2-yl)pyridin-3-yl]piperidin-4-yl}-1-methylpyrrolidine-3-carboxamide]
23 | < 0.01 | COc1ccccc1-c1ccc(C2(NC(=O)O[C@H]3CCN(C)C3)CCN(c3ccc(C(F)(F)F)cc3C#N)CC2)cn1 [Compound 2-53, (3S)-1-methylpyrrolidin-3-yl N-{1-[2-cyano-4-(trifluoromethyl)phenyl]-4-[6-(2-methoxyphenyl)pyridin-3-yl]piperidin-4-yl}carbamate]
24 | < 0.01 | COc1ccccc1-c1ccc(C2(NC(=O)O[C@@H]3CCN(C)C3)CCN(c3ccc(C(F)(F)F)cc3C#N)CC2)cn1 [Compound 2-54, (3R)-1-methylpyrrolidin-3-yl N-{1-[2-cyano-4-(trifluoromethyl)phenyl]-4-[6-(2-methoxyphenyl)pyridin-3-yl]piperidin-4-yl}carbamate]
25 | < 0.01 | COc1ccccc1-c1ccc(C2(NC(=O)N[C@H]3CCN(C)C3)CCN(c3ccc(C(F)(F)F)cc3C#N)CC2)cn1 [Compound 2-55, 1-{1-[2-cyano-4-(trifluoromethyl)phenyl]-4-[6-(2-methoxyphenyl)pyridin-3-yl]piperidin-4-yl}-3-[(3S)-1-methylpyrrolidin-3-yl]urea]
26 | < 0.01 | COc1ccccc1-c1ccc(C2(NC(=O)N[C@@H]3CCN(C)C3)CCN(c3ccc(C(F)(F)F)cc3C#N)CC2)cn1 [Compound 2-56, 1-{1-[2-cyano-4-(trifluoromethyl)phenyl]-4-[6-(2-methoxyphenyl)pyridin-3-yl]piperidin-4-yl}-3-[(3R)-1-methylpyrrolidin-3-yl]urea]
27 | 0.01 to 0.1 | COc1ccccc1-c1ccc(C2(NC(=O)NC3CN(C)C3)CCN(c3ccc(C(F)(F)F)cc3C#N)CC2)cn1 [Compound 2-59, 1-{1-[2-cyano-4-(trifluoromethyl)phenyl]-4-[6-(2-methoxyphenyl)pyridin-3-yl]piperidin-4-yl}-3-(1-methylazetidin-3-yl)urea]
28 | < 0.01 | COc1ccccc1-c1ccc(C2(NC(=O)[C@@H]3CCN(C)C3)CCN(c3ccc(C(F)(F)F)cc3C#N)CC2)cn1 [Compound 2-60, (3R)—N-{1-[2-cyano-4-(trifluoromethyl)phenyl]-4-[6-(2-methoxyphenyl)pyridin-3-yl]piperidin-4-yl}-1-methylpyrrolidine-3-carboxamide]
